Common to all, as to format: cell-based
Experiment [1] concerns HIV-1 L100I mutant strain. The experiment is described as follows: Anti-HIV-1 activity in MT-4 cells (MTT method), L100I. The note with it: Human immunodeficiency virus 1, MT4, read-out: EC50 (nM) L100I. How it is done:
(§1) Selected compounds were screened for inhibitory activity against HIV-1 using MTT method as describe previously by Christophe. Pannecouque et al. Nat. Protoc. 3 (2008) 427-434, and Rudi Pauwels et al. J. Virol. Methods 20 (1988) 309-321. Briefly, MT-4 cells infected with HIV-1 can only survive for 5 to 7 days without any treatment, but when HIV-1 inhibitors were added, they can protect MT-4 cell from cytopathic. Serial solution of compounds was added to MT-4 cells after infected with HIV-1, MTT method was used to detect the survival rate after culture for 5 to 7 days. EC50 value was defined as compound concentration required to achieve 50% protection of MT-4 cells against HIV-1-induced cytopathic effect. In vitro anti-HIV-1 assay was supported by Rega Institute for Medical Research.
(§2) • (1) MT-4 cells infected with HIV-1 viral strains (IIIB, L100I, K103N, Y181C, Y188L, E138K, F227L/V106A, Y181C/K103N) were provided by Rega Institute for Medical Research, Katholieke Universiteit Leuven, Belgium. • (2) MTT and formazan: sigma Chemical Co. • (3) Preparation of compounds: Stock solutions (10×final concentration) of test compounds is diluted with double distilled water for 5 folds and 5 concentrations of one compound are prepared. • (4) Reference drugs: Nevirapine (NVP), Efavirenz (EFV), Etravirine (ETV), Rilpivirine (RPV) and Azidothymidine (AZT). • (5) Method (MTT method): Serial five-fold dilutions of test compounds were added to cultured MT-4 cells infected with HIV-1, after 5 to 7 days, MTT was added and cultured for a few hours. Medium was removed and lysate was added followed by formazan, OD value was determined in 690 nm and 540 nm by microplate reader, and EC50 value was calculated. 2. Method
(§3) The MTT method was described briefly as follows: 96-well plastic microtiter trays were filled with 100 μL of complete medium. Subsequently, serial of tested compounds was added (25 μL) to two series of triplicate wells so as to allow simultaneous evaluation of their effects on HIV- and mock infected cells. 50 μL of 1×10^4 cells/mL MT-4 cells were added. After cultured for 5 days at 37° C. in humidified atmosphere in the presence of 5% CO2, MTT was added and cultured for another 2 h, then medium was removed and 100 μL isopropanol solution was added to lyse the cells. Formazan crystals were added and vibrated platform shaker for 10 min to solubilize the formazan crystals. Absorbances at 690 nm and 540 nm were read by using spectrophotometrically. EC50 was defined as the concentration achieving 50% protection from the cytopathic effect of the virus in infected cells.
(§4) Selected compounds prepared as described above were assayed in MT-4 cells infected with wide-type IIIB, L100I, K103N, Y181C, Y188L, E138K or double mutant RES056 (Y181C/K103N) and F227L/V106A HIV-1 strains. Nevirapine, Efavirenz, Etravirine, Rilpivirine and Azidothymidine were selected as reference drugs. The results were listed below as EC50 value (nM)
(In general: Formazan colour is commonly taken as a measure of viable cells.)

In experiment [2] the test system is HIV-1 E138K mutant strain. The experiment is described as follows: Anti-HIV-1 activity in MT-4 cells (MTT method), E138K. The note with it: Human immunodeficiency virus 1, MT4, read-out: EC50 (nM) E138K. As to the method: as §1, §2, §3, §4
The test system of experiment [3] is HIV-1 Y188L mutant strain. The experiment is described as follows: Anti-HIV-1 activity in MT-4 cells (MTT method), Y188L. To be noted: Human immunodeficiency virus 1, MT4, read-out: EC50 (nM) Y188L. As to the method:
as §1, §2, §3, §4

The test system of experiment [4] is HIV-1 double mutant RES056 (Y181C/K103N). The experiment is described as follows: Anti-HIV-1 activity in MT-4 cells (MTT method), RES056. The note with it: Human immunodeficiency virus 1, MT4, read-out: EC50 (nM) Y181C/K103N. As to the method:
as §1, §2, §3, §4

In experiment [5] the test system is wide-type HIV-1 (strain IIIB). Nature of the experiment: Anti-HIV-1 activity in MT-4 cells (MTT method), wild-type. How it is done: as §1, §2, §3, §4
The test system of experiment [6] is HIV-1 F227L/V106A double mutant strain. The experiment is described as follows: Anti-HIV-1 activity in MT-4 cells (MTT method), F227L/V106A. The note with it: Human immunodeficiency virus 1, MT4, read-out: EC50 (nM) F227L/V106A. How it is done: as §1, §2, §3, §4
For experiment [7], the system named is HIV-1 K103N mutant strain. Nature of the experiment: Anti-HIV-1 activity in MT-4 cells (MTT method), K103N. The note with it: Human immunodeficiency virus 1, MT4, read-out: EC50 (nM) K103N. As to the method:
as §1, §2, §3, §4

In experiment [8] the test system is HIV-1 Y181C mutant strain. The experiment is described as follows: Anti-HIV-1 activity in MT-4 cells (MTT method), Y181C. The note with it: Human immunodeficiency virus 1, MT4, read-out: EC50 (nM) Y181C. As to the method:
as §1, §2, §3, §4

[9] abbreviates: Human immunodeficiency virus 1, IIIB, MT4, read-out: EC50 (nM) wt.

Read-outs that look alike come from different tables or passages of the source.

For the compound `Cc1cc(C)c(Oc2nc(NC3CCN(Cc4ccc(S(N)(=O)=O)cc4)CC3)nc3c2SCCC3)c(C)c1` [IIA-1-2, 4-((4-((4-(mesityloxy)-7,8-dihydro-6H-thiopyrano[3,2-d]pyrimidin-2-yl)amino)piperidin-1-yl)methyl)benzenesulfonamide], the EC50 in experiment [1] is 10 to 100 nM; in experiment [2] it was 10 to 100 nM; in experiment [3], 10 to 100 nM; in experiment [4] it was > 100 nM; in experiment [5] (setting [9]), < 10 nM; in experiment [6] it was 10 to 100 nM. Besides, the EC50 in experiment [7] is < 10 nM; in experiment [8], 10 to 100 nM.

For the compound `Cc1ccnc2c1NC(=O)c1cccnc1N2C1CC1` [NVP, Nevirapine, reference compound], the EC50 in experiment [1] is > 100 nM; in experiment [2], > 100 nM; in experiment [3], > 100 nM; in experiment [4], > 100 nM; in experiment [5] (Human immunodeficiency virus 1, MT4, MT-4 cells, 50% protection against HIV-1-induced cytopathicity, wt (IIIB), read-out: EC50 (nM) wt), > 100 nM; in experiment [6], > 100 nM. The EC50 in experiment [7] and in experiment [8] was > 100 nM each time.

With `Cc1cc(C#N)cc(C)c1Oc1nc(NC2CCN(Cc3ccc(S(C)(=O)=O)cc3)CC2)nc2c1SCCC2` [IIA-1-11, 3,5-dimethyl-4-((2-((1-(4-(methylsulfonyl)benzyl)piperidin-4-yl)amino)-7,8-dihydro-6H-thiopyrano[3,2-d]pyrimidin-4-yl)oxy)benzonitrile], the EC50 in experiment [1] was 10 to 100 nM; in experiment [2] it was 10 to 100 nM; in experiment [3], 10 to 100 nM; in experiment [4] it was 10 to 100 nM; in experiment [5] (setting [9]), < 10 nM; in experiment [6], 10 to 100 nM. For the same compound, the EC50 in experiment [7] is < 10 nM; in experiment [8], 10 to 100 nM.

For the compound `Cc1cc(C#N)cc(C)c1Oc1nc(NC2CCN(Cc3ccc(S(N)(=O)=O)cc3)CC2)nc2c1SCCC2` [IIA-1-1, 4-((4-((4-(4-cyano-2,6-dimethylphenoxy)-7,8-dihydro-6H-thiopyrano[3,2-d]pyrimidin-2-yl)amino)piperidin-1-yl)methyl)benzenesulfonamide], the EC50 is 10 to 100 nM in experiment [1]; < 10 nM in experiment [2]; < 10 nM in experiment [3]; 10 to 100 nM in experiment [4]; < 10 nM in experiment [5] (setting [9]); 10 to 100 nM in experiment [6]. Also, the EC50 in experiment [7] was < 10 nM; in experiment [8] it was 10 to 100 nM.

`Cc1cc(C#N)cc(C)c1Oc1nc(NC2CCN(Cc3cccc(C#N)c3)CC2)nc2c1SCCC2` [IIA-1-6, 4-((2-((1-(3-cyanobenzyl)piperidin-4-yl)amino)-7,8-dihydro-6H-thiopyrano[3,2-d]pyrimidin-4-yl)oxy)-3,5-dimethylbenzonitrile]: the EC50 was > 100 nM in experiment [1]; 10 to 100 nM in experiment [2]; 10 to 100 nM in experiment [3]; > 100 nM in experiment [4]; < 10 nM in experiment [5] (setting [9]); > 100 nM in experiment [6]. The EC50 in experiment [7] and in experiment [8] was 10 to 100 nM each time.

As to `Cc1cc(C#N)cc(C)c1Oc1nc(NC2CCN(Cc3ccccc3C#N)CC2)nc2c1SCCC2` [IIA-1-7, 4-((2-((1-(2-cyanobenzyl)piperidin-4-yl)amino)-7,8-dihydro-6H-thiopyrano[3,2-d]pyrimidin-4-yl)oxy)-3,5-dimethylbenzonitrile], the EC50 in experiment [1] is > 100 nM; in experiment [2] it was 10 to 100 nM; in experiment [3] it was > 100 nM; in experiment [4] it was > 100 nM; in experiment [5] (setting [9]), < 10 nM; in experiment [6] it was > 100 nM. The EC50 in experiment [7] and in experiment [8] was 10 to 100 nM throughout.

On to `Cc1cc(C#N)cc(C)c1Oc1nc(NC2CCN(c3cccc(C#N)c3)CC2)nc2c1SCCC2` [IIC-1-1, 4-((2-((1-(3-cyanophenyl)piperidin-4-yl)amino)-7,8-dihydro-6H-thiopyrano[3,2-d]pyrimidin-4-yl)oxy)-3,5-dimethylbenzonitrile], for which the EC50 is > 100 nM in experiment [1]; > 100 nM in experiment [2]; > 100 nM in experiment [3]; > 100 nM in experiment [4]; 10 to 100 nM in experiment [5] (setting [9]); > 100 nM in experiment [6]. The values for the EC50 in experiment [7] and in experiment [8] were 10 to 100 nM and > 100 nM, respectively.

With `Cc1cc(/C=C/C#N)cc(C)c1Nc1ccnc(Nc2ccc(C#N)cc2)n1` [RPV, Rilpivirine, reference compound], the EC50 is < 10 nM in experiment [1]; < 10 nM in experiment [2]; 10 to 100 nM in experiment [3]; 10 to 100 nM in experiment [4]; < 10 nM in experiment [5] (setting [9]); 10 to 100 nM in experiment [6]. In addition, the EC50 in experiment [7] and in experiment [8] was < 10 nM throughout.

For the compound `Cc1cc(C#N)cc(C)c1Oc1nc(NC2CCN(Cc3ccc(C(N)=O)cc3)CC2)nc2c1SCCC2` [IIA-1-8, 4-((4-((4-(4-cyano-2,6-dimethylphenoxy)-7,8-dihydro-6H-thiopyrano[3,2-d]pyrimidin-2-yl)amino)piperidin-1-yl)methyl)benzamide], the EC50 in experiment [1] is 10 to 100 nM; in experiment [2], 10 to 100 nM; in experiment [3], 10 to 100 nM; in experiment [4], 10 to 100 nM; in experiment [5] (setting [9]), < 10 nM; in experiment [6], > 100 nM. The EC50 in experiment [7] is < 10 nM; in experiment [8], 10 to 100 nM.

On to `Cc1cc(/C=C/C#N)cc(C)c1Oc1nc(Nc2ccc(C#N)cc2)nc2c1SCCC2` [IA-1-2, (E)-4-((4-(4-(2-cyanovinyl)-2,6-dimethylphenoxy)-7,8-dihydro-6H-thiopyrano[3,2-d]pyrimidin-2-yl)amino)benzonitrile], for which the EC50 in experiment [1] is < 10 nM; in experiment [2], 10 to 100 nM; in experiment [3] it was 10 to 100 nM; in experiment [4], 10 to 100 nM; in experiment [5] (setting [9]), < 10 nM; in experiment [6], 10 to 100 nM. The EC50 was < 10 nM in experiment [7] and 10 to 100 nM in experiment [8].

In the case of `Cc1cc(C#N)cc(C)c1Oc1nc(NC2CCN(Cc3ccc(N)cc3)CC2)nc2c1SCCC2` [IIA-1-13, 4-((2-((1-(4-aminobenzyl)piperidin-4-yl)amino)-7,8-dihydro-6H-thiopyrano[3,2-d]pyrimidin-4-yl)oxy)-3,5-dimethylbenzonitrile], the EC50 in experiment [1] was 10 to 100 nM; in experiment [2] it was 10 to 100 nM; in experiment [3], 10 to 100 nM; in experiment [4], > 100 nM; in experiment [5] (setting [9]), < 10 nM; in experiment [6], > 100 nM. For the same compound, the EC50 is < 10 nM in experiment [7] and 10 to 100 nM in experiment [8].

On to `Cc1cc(C#N)cc(C)c1Oc1nc(NC2CCN(Cc3ccc(NS(C)(=O)=O)cc3)CC2)nc2c1SCCC2` [IIA-1-14, N-(4-((4-((4-(4-cyano-2,6-dimethylphenoxy)-7,8-dihydro-6H-thiopyrano[3,2-d]pyrimidin-2-yl)amino)piperidin-1-yl)methyl)phenyl) methanesulfonamide], for which the EC50 is 10 to 100 nM in experiment [1]; < 10 nM in experiment [2]; 10 to 100 nM in experiment [3]; > 100 nM in experiment [4]; < 10 nM in experiment [5] (setting [9]); > 100 nM in experiment [6]. The EC50 in experiment [7] and in experiment [8] was < 10 nM throughout.

Values taken from US10590145B2, “Tetrahydrothiopyranopyrimidine derivatives as anti-HIV agent” (SHANDONG UNIVERSITY, priority 2016, dated 2020).
